For data set [1], the system named is human peripheral blood mononuclear cells. Put plainly: Flow Cytometry Analysis: binding to mononuclear cells by fluorescence. Format: cell-based. Conditions: for binding to human peripheral blood mononuclear cells (fluorescence intensity histogram): FACScan flow cytometer. As for the experimental part:
Whole blood was collected by venipuncture into EDTA vacutainer tubes from healthy human donors. PBMCs were separated from whole blood by ficoll hypaque (Sigma Chemicals, St. Louis, Mo.) density gradient centrifugation as described in Testerman. The PBMCs were suspended at 2×10^6 cells/mL in RPMI 1640 medium containing 10% fetal bovine serum, 2 mM L-glutamine and penicillin/streptomycin solution (RPMI complete). […] Following incubation the cells were washed two times with staining buffer (Dulbecco's Phosphate Buffered Saline without calcium and magnesium, 1% heat inactivated fetal bovine serum, and 0.1% sodium azide). The cells were suspended in staining buffer and transferred to 12×75 mm polystyrene tubes for analysis by flow cytometry. Binding to mononuclear cells was determined by fluorescence using a FACScan flow cytometer (purchased from Becton Dickinson).
The histograms of FIGS. 1 and 2 plot the fluorescence intensity with the more highly fluorescent cell populations being seen further to the right. The peak area labeled as M3 in the histograms indicates the fluorescence binding to the monocyte population in the peripheral blood mononuclear cells.
A general note: A flow cytometer gives signals particle by particle.

Data set [2] deals with Peripheral blood mononuclear cells (PBMCs). As to the kind of experiment: Cytokine Induction in Human Cells, Test Method 1 (IFN by A549/encephalomyocarditis bioassay, TNF by ELISA). Conditions: 24 hours. It counts as cell-based. From the text: An in vitro human blood cell system is used to assess cytokine induction by compounds of the invention. Activity is based on the measurement of interferon and tumor necrosis factor (α) (IFN and TNF, respectively) secreted into culture media as described by Testerman et. al. in “Cytokine Induction by the Immunomodulators Imiquimod and S27609”, Journal of Leukocyte Biology, 58, 365-372 (September, 1995).
Whole blood from healthy human donors is collected by venipuncture into EDTA vacutainer tubes. Peripheral blood mononuclear cells (PBMCs) are separated from whole blood by Histopaque®-1077 (Sigma Chemicals, St. Louis, Mo.) density gradient centrifugation. The PBMCs are washed twice with Hank's Balanced Salts Solution (Sigma) and are then suspended at 2×10^6 cells/mL in RPMI 1640 medium containing 10% fetal bovine serum, 2 mM L-glutamine and 1% penicillin/streptomycin solution (RPMI complete). 1 mL portions of PBMC suspension are added to 12 or 24 well flat bottom sterile tissue culture plates.
The compounds are solubilized in ethanol, dimethyl sulfoxide or pyrogen free water then diluted with tissue culture water, 0.01N sodium hydroxide or 0.01N hydrochloric acid (The choice of solvent will depend on the chemical characteristics of the compound being tested.). Ethanol or DMSO concentration should not exceed a final concentration of 1% for addition to the culture wells. The compounds are generally tested using a concentration range from about 0.01 μg/mL to about 50 μg/mL.
The solution of test compound is added to the wells containing 1 ml of PBMCs in media. The plates are covered with plastic lids, mixed gently and then incubated for 24 hours at 37° C. with a 5% carbon dioxide atmosphere.
Following incubation the cell-free culture supernatant is removed with a sterile polypropylene pipet and transferred to a 12×75 mm polypropylene tube. The tubes are then centrifuged at 1000 rpm ([…]) for 10 to 15 minutes at 4° C. The supernatant is removed and placed into 2 mL sterile freezing vials. Samples are maintained at −70° C. until analyzed for cytokines.
Interferon concentrations are determined by bioassay using A549 human lung carcinoma cells challenged with encephalomyocarditis. The details of the bioassay method have been described by G. L. Brennan and L. H. Kronenberg in “Automated Bioassay of Interferons in Micro-test Plates”, Biotechniques, June/July, 78, 1983, incorporated herein by reference. Briefly stated the method is as follows: A549 cells are incubated with dilutions of IFN standard or test samples at 37° C. for 24 hours. The incubated cells are then infected with an inoculum of encephalomyocarditis virus. The infected cells are incubated for an additional 24 hours at 37° C. before quantifying for viral cytopathic effect. The viral cytopathic effect is quantified by staining of the wells with a vital dye such as crystal violet followed by visual scoring of the plates. Results are expressed as alpha reference units/mL based on the value obtained for an NIH Human Leukocyte IFN standard.
Tumor necrosis factor (α) (TNF) concentration is determined using an ELISA kit available from Genzyrne, Cambridge, Mass. The results are expressed as pg/ml.
The labeled compound of Example 1 and the unlabeled intermediate (2-(4-amino-2-ethoxymethyl-1H-imidazo[4,5-c]quinolin-1-yl)ethaneamine trihydrochloride) were tested side by side for their ability to induce cytokine biosynthesis using Test Method 1 described above. The compound of Example 1 was solubilized in ethanol. The unlabeled intermediate was solubilized in tissue culture water.

For data set [3] the test system is unchanged. As to the kind of experiment: Cytokine Induction in Human Cells, Test Method 2 (IFN-α and TNF-α by ELISA). It counts as cell-based. Further details: key: +: indicates that the compound induced the indicated cytokine at that particular concentration; −: indicates that the compound did not induce the indicated cytokine at that particular concentration. As to conditions: 18 to 24 hours. From the text:
An in vitro human blood cell system is used to assess cytokine induction. Activity is based on the measurement of interferon and tumor necrosis factor (α) (IFN and TNF, respectively) secreted into culture media as described by Testerman et. al. In “Cytokine Induction by the Immunomodulators Imiquimod and S-27609”, Journal of Leukocyte Biology, 58, 365-372 (September, 1995).
Whole blood from healthy human donors is collected by venipuncture into EDTA vacutainer tubes. Peripheral blood mononuclear cells (PBMCs) are separated from whole blood by density gradient centrifugation using Histopaque®-1077. The PBMCs are washed twice with -Hank's Balanced Salts Solution and then are suspended at 3-4×10^6 cells/mL in RPMI complete. The PBMC suspension is added to 48 well flat bottom sterile tissue culture plates (Costar, Cambridge, Mass. or Becton Dickinson Labware, Lincoln Park, N.J.) containing an equal volume of RPMI complete media containing test compound.
The compounds are solubilized in dimethyl sulfoxide (DMSO). The DMSO concentration should not exceed a final concentration of 1% for addition to the culture wells. The compounds are generally tested at concentrations ranging from 0.12 to 30 μM.
The solution of test compound is added at 60 μM to the first well containing RPMI complete and serial 3 fold dilutions are made in the wells. The PBMC suspension is then added to the wells in an equal volume, bringing the test compound concentrations to the desired range (0.12 to 30 μM). The final concentration of PBMC suspension is 1.5-2×10^6 cells/mL. The plates are covered with sterile plastic lids, mixed gently and then incubated for 18 to 24 hours at 37° C. in a 5% carbon dioxide atmosphere.
Following incubation the plates are centrifuged for 5-10 minutes at 1000 rpm (˜200×g) at 4° C. The cell-free culture supernatant is removed with a sterile polypropylene pipet and transferred to sterile polypropylene tubes. Samples are maintained at −30 to −70° C. until analysis. The samples are analyzed for interferon (α) and for tumor necrosis factor (α) by ELISA
Interferon (α) concentration is determined by ELISA using a Human Multi-Species kit from PBL Biomedical Laboratories, New Brunswick, N.J. Results are expressed in pg/mL.
Tumor necrosis factor (α) (TNF)concentration is determined using ELISA kits available from Genzyme, Cambridge, Mass.; R&D Systems, Minneapolis, Minn.; or Phanningen, San Diego, Calif. Results are expressed in pg/mL.
The labeled compounds of Examples 2 and 3 were tested for their ability to induce cytokine biosynthesis using Test Method 2 described above.

The values below come from patent US6916925B1, “Dye labeled imidazoquinoline compounds” (3M Innovative Properties Co., priority 1999, dated 2005).

On to `Cc1cc(C)n2c1C=C1C=CC(CCC(=O)NCCCCCC(=O)ON3C(=O)CCC3=O)=[N+]1[B-]2(F)F` [BODIPY fluorophore, 6-((4,4-difluoro-5,7-dimethyl4-bora-3a,4a-diaza-s-indacene-3-propionyl)amino)hexanoic acid, succinimidyl ester, reference compound], for which the “binding to human peripheral blood mononuclear cells (fluorescence intensity histogram)” value in data set [1] (incubated 1 hour at 37° C.) was “does not”.

Turning to `CCOCc1nc2c(N)nc3ccccc3c2n1CCNC(=O)CCCCCNC(=O)CCc1ccc2n1[B-](F)(F)[N+]1=C(C)C=C(C)C1=C2` [Example 1, N-[2-(4-Amino-2-ethoxymethyl-1H-imidazo[4,5-c]quinolin-1-yl)ethyl]-6-[(4,4-difluoro-5,7-dimethyl-4-bora-3a,4a-diaza-s-indacene-3-propionyl)amino]hexanoamide], the IFN was found to be 16 U/ml in data set [2] (concentration 0.01 μg/ml); 47 U/ml in data set [2] (concentration 0.03 μg/ml); 554 U/ml in data set [2] (concentration 0.1 μg/ml); 2878 U/ml in data set [2] (concentration 0.3 μg/ml); 421 U/ml in data set [2] (concentration 1 μg/ml); 62 U/ml in data set [2] (concentration 3 μg/ml). The TNF was found to be 0 pg/mL in data set [2] (concentration 0.01 μg/ml); 42 pg/mL in data set [2] (concentration 0.03 μg/ml); 46 pg/mL in data set [2] (concentration 0.1 μg/ml); 73 pg/mL in data set [2] (concentration 0.3 μg/ml); 369 pg/mL in data set [2] (concentration 1 μg/ml); 869 pg/mL in data set [2] (concentration 3 μg/ml). Besides, in data set [1] (incubated 1 hour at 37° C.), the “binding to human peripheral blood mononuclear cells (fluorescence intensity histogram)” value was “binds to human peripheral blood mononuclear cells”. The “binding to monocytes compared with other PBMCs” value in data set [1] (incubated 1 hour at 37° C., peak area M3 = monocyte population) is reported as “monocytes bind more effectively than other PBMCs”. In data set [1] (incubated with human PBMCs at 4° C. for 1 hour), the binding to monocytes entry was “did not show significant binding”.

Broadly, the melting point is the temperature, or range, at which the solid turns liquid. As for `COCCc1nc2c(N)nc3ccccc3c2n1CCCCNC(=S)Nc1ccc(-c2c3ccc(=O)cc-3oc3cc(O)ccc23)c(C(=O)O)c1` [Example 2], the melting point is greater than 245 °C. Further, in data set [3] (concentration 0.014 μg/ml), the IFN induction result is “−” and the TNF induction entry is “−”. In data set [3] (concentration 0.041 μg/ml), the IFN induction entry is “−” and the TNF induction result is recorded as “−”. In data set [3] (concentration 0.12 μg/ml), the IFN induction entry is “−” and the TNF induction entry is “−”. In data set [3] (concentration 0.37 μg/ml), the IFN induction result is reported as “−” and the TNF induction entry is “−”. Further, in data set [3] (concentration 1.11 μg/ml), the IFN induction entry is listed as “−” and the TNF induction entry is “−”. In addition, in data set [3] (concentration 3.33 μg/ml), the IFN induction result is reported as “−” and the TNF induction result was “+”. Also, in data set [3] (concentration 10 μg/ml), the IFN induction result is listed as “+” and the TNF induction entry was “+”. In addition, in data set [3] (concentration 30 μg/ml), the IFN induction entry is “+” and the TNF induction entry is reported as “+”.

In turn, `CCCCc1nc2c(N)nc3ccccc3c2n1CCNC(=S)Nc1ccc(-c2c3ccc(=O)cc-3oc3cc(O)ccc23)c(C(=O)O)c1` [Example 3, 5-{[({2-[4-Amino-2-butyl-1H-imidazo[4,5-c]quinolin-1-yl]ethyl}amino)carbonthioyl]amino}-2-(6-hydroxy-3-oxo-3H-xanthen-9-yl)benzoic Acid] yielded a melting point greater than 245 °C. Besides, in data set [3] (concentration 0.014 μg/ml), the IFN induction entry was “−” and the TNF induction entry is “−”. Besides, in data set [3] (concentration 0.041 μg/ml), the IFN induction result is on record as “−” and the TNF induction entry was “−”. In addition, in data set [3] (concentration 0.12 μg/ml), the IFN induction result is recorded as “−” and the TNF induction result is recorded as “−”. In data set [3] (concentration 0.37 μg/ml), the IFN induction result was “−” and the TNF induction result is on record as “−”. In addition, in data set [3] (concentration 1.11 μg/ml), the IFN induction result was “−” and the TNF induction result is on record as “−”. In addition, in data set [3] (concentration 3.33 μg/ml), the IFN induction entry was “−” and the TNF induction result is “−”. Also, in data set [3] (concentration 10 μg/ml), the IFN induction entry is listed as “+” and the TNF induction entry is “−”. In data set [3] (concentration 30 μg/ml), the IFN induction result is recorded as “+” and the TNF induction entry is given as “+”.

With `CCOCc1nc2c(N)nc3ccccc3c2n1CCN.Cl.Cl.Cl` [Unlabeled Intermediate, 2-(4-amino-2-ethoxymethyl-1H-imidazo[4,5-c]quinolin-1-yl)ethaneamine trihydrochloride], the IFN was 421 U/ml in data set [2] (concentration 0.1 μg/ml); 2878 U/ml in data set [2] (concentration 0.3 μg/ml); 2878 U/ml in data set [2] (concentration 1 μg/ml); 81 U/ml in data set [2] (concentration 3 μg/ml); 140 U/ml in data set [2] (concentration 10 μg/ml). In addition, the TNF in data set [2] (concentration 0.1 μg/ml) was found to be 0 pg/mL; in data set [2] (concentration 0.3 μg/ml), 0 pg/mL; in data set [2] (concentration 1 μg/ml) it was 49 pg/mL; in data set [2] (concentration 3 μg/ml), 538 pg/mL; in data set [2] (concentration 10 μg/ml) it was 2640 pg/mL.
